“Also recorded” adds a separate entry of the source.
Legend:
[1] = test system: myenteric intrinsic primary afferent neurons (IPANs; AH neurons); experiment: Direct effect of compounds on excitability, membrane potential, input resistance and action potentials of AH neurons (no or before presynaptic stimulation); assay type: cell-based, guinea pig
From the text: (§1) Guinea pigs from the inbred Hartley strain colony of the Department of Anatomy and Cell Biology at the University of Melbourne were used. All efforts were made to minimize animal suffering and numbers of animals used. The experiments conformed to National Health and Medical Research Council of Australia guidelines and were approved by the University of Melbourne Animal Experimentation Ethics Committee. Guinea pigs of either sex (180-250 g) were stunned by a blow to the head and killed by severing the carotid arteries and spinal cord, and segments of ileum were removed into physiological saline. The segments were placed in a recording dish lined with silicone elastomer, opened along the line of the mesenteric attachment and pinned flat under moderate tension with the mucosa uppermost. During dissection, the tissue was immersed in physiological saline (composition in mM: NaCl 118, KCl 4.8, NaHCO3 25, NaH2PO4 1.0, MgSO4 1.2, glucose 11.1, CaCl2 2.5) and kept at room temperature. The mucosa, submucosa and circular smooth muscle were removed to expose the myenteric plexus. The recording dish (volume 4 mL) was then placed on the stage of an inverted microscope and continuously superfused (4 mL/min) with physiological saline that had been preheated to yield a bath temperature of 35-37° C. The superperfusion solution was bubbled with 95% O2 and 5% CO2 and contained nicardipine (3 μM) and hyoscine (1 μM) to inhibit muscle movement. The tissue was equilibrated with the perfusate for 1-2 h before recording was commenced.
(§2) Individual neurons were impaled using conventional intracellular microelectrodes (resistance, […]) filled with 1 M KCl. Signals were amplified using an AxoClamp 2B amplifier (Axon instruments, Foster City, Calif., USA), digitized at 5-20 kHz and stored using PC-based data acquisition software (Axoscope 8.0). Measurements were made after allowing the impalements to stabilize for at least 15 min without applying intracellular holding current. Neurons were identified as AH cells based on the presence of a hump on the falling phase of the action potential and, in most cells, a late after-hyperpolarising potential following the action potential. Stimuli were applied to inter-ganglionic connectives at a frequency of 1 Hz, via a fine tungsten stimulating electrode (tip diameter<50 μm) that was placed on a circumferentially located internodal strand adjacent to the ganglion. Pulses were 0.1 ms in duration and <0.3 mA in intensity.
(§3) Neuronal excitability was assessed, by injecting 500 ms depolarizing current pulses (0.05-0.2 nA). The depolarizing pulses were delivered at intervals of 40 s. The mean excitability was evaluated by averaging the numbers of action potentials evoked by the 6 depolarizing current pulses for periods of 4 min, prior to the 1 Hz stimulus, around the peak of the response, and for a period of 4 min after the end of the stimulus. To determine input resistance (Rin), small hyperpolarizing current pulses (duration 100 ms; intensity<0.02 nA) were injected before each depolarizing pulse. The membrane potential (MP) was sampled each 40 s. MP, Rin, and numbers of action potentials in response to depolarizing pulses were determined.

[2] = test system: myenteric intrinsic primary afferent neurons (IPANs; AH neurons); experiment: Sustained slow postsynaptic excitation (SSPE) evoked by 1 Hz, 4 min stimulation of synaptic inputs; intracellular recording in ileum myenteric plexus; assay type: cell-based, guinea pig; details: for effect on the excitability increase associated with SSPE: stimulation of presynaptic inputs 1 Hz for 4 min
From the text: as §1, §2, §3

calphostin C
effect on excitability, membrane potential or input resistance before stimulation of presynaptic inputs ([1]; 1 μM, about 15-25 min exposure): did not affect
reversal of excitability already enhanced by successive stimuli (maintenance of SSPE) ([2]; 1 μM, added after SSPE had been enhanced): did not restore excitability to its pre-stimulus level
effect on the excitability increase associated with SSPE ([2]; 1 μM): blocked
effect on the excitability increase associated with SSPE ([2]; 1 μM, listed as Calphostin C): substantially reduced

CN[C@@H]1C[C@H]2O[C@@](C)([C@@H]1OC)n1c3ccccc3c3c4c(c5c6ccccc6n2c5c31)C(=O)NC4 [staurosporine]
effect on excitability, membrane potential or input resistance before stimulation of presynaptic inputs ([1]; 1 μM, about 15-25 min exposure): did not cause any change
decrease of the peak change in excitability during SSPE ([2]; 1 μM, stimulation 1 Hz for 4 min, n=6, P<0.01 vs control): about 75%
effect on the excitability increase associated with SSPE ([2]; 1 μM): significantly smaller or no increase in neuronal excitability

[H]/N=C(/N)SCCCn1cc(C2=C(c3cn(C)c4ccccc34)C(=O)NC2=O)c2ccccc21 [RO31-8220, 3-[1-[3-(Amidinothio)propyl-1H-indol-3-yl]-3-(1-methyl-1H-indol-3-yl)maleimide Bisindolylmaleimide IX, methanesulfonate]
effect on antidromic action potential generation ([1]; 3.3 μM): did not cause a depression
effect on excitability, membrane potential or input resistance before stimulation of presynaptic inputs ([1]; 3.3 μM, 15 min exposure): without affecting
effect on antidromic action potentials ([1]; 10 μM, restored by increasing stimulus strength): sometimes suppressed
effect on the excitability increase associated with SSPE ([2]; 1 μM): not reduced
effect on the excitability increase associated with SSPE ([2]; 3.3 μM, n=6, P<0.1): reduced the degree to which the excitability increased; also recorded: reduction in the increase of AH neuron excitability

CCCC(=O)O[C@@H]1[C@@H](C)[C@@]2(O)[C@@H](C=C(CO)C[C@]3(O)C(=O)C(C)=C[C@@H]23)[C@@H]2C(C)(C)[C@]12OC(=O)CCC [PDBu, phorbol 12, 13 dibutyrate]
effect on excitability of the neuron ([1]; 1 μM, example neuron, FIG. 5A): increased the excitability
depolarization ([1]; 1 μM, example neuron, FIG. 5B): about 8 mV
increase of input resistance ([1]; 1 μM, example neuron, FIG. 5C): about 100 MΩ
amplitude of the after-hyperpolarizing potential (AHP) during exposure ([1]; 0.2-1 μM in bath for 5-10 min): decreased
duration of effect beyond washing out of the compound ([1]; 0.2-1 μM in bath for 5-10 min): ≥ 10 min

O=S(=O)(NCCNC/C=C/c1ccc(Br)cc1)c1cccc2cnccc12 [H89]
effect on excitability, membrane potential or input resistance before stimulation of presynaptic inputs ([1]; 1 μM, about 15-25 min exposure): no changes
effect on the excitability increase associated with SSPE ([2]; 1 μM): no effect; also recorded: not changed

Reference: patent publication US20040224937A1, “Use of protein kinase C inhibitor for suppressing sustained slow postsynaptic excitation (SSPE)” (Pfizer Inc, priority 2003, published 2004)
